Experimental data from patent US20100298141A1, “SUBSTITUTED PYRIDINE N-OXIDE HERBICIDES” (E. I. DU PONT DE NEMOURS AND COMPANY, priority 2007, published 2010).

How the values were obtained:
rice = test: Test C flooded paddy test; type: in vivo, Oryza sativa; settings: Flood
How it was run: (§1)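 Ratings were visual and made relative to untreated controls after 13 to 15 greenhouse days.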

giant foxtail [1] = test: Test C pre-/postemergence test; type: in vivo, Setaria faberii
How it was run: (§2)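 Compounds in a non-phytotoxic solvent with surfactant applied preemergence to seeded pots and, at the same time, postemergence to plants 2–18 cm tall (1- to 4-leaf stage). Paddy tests: pots flooded to 3 cm, compound applied into the water, depth held throughout.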

lambsquarters = test: Test C pre-/postemergence test; type: in vivo, Chenopodium album
How it was run: as §2

eastern black nightshade = test: Test C pre-/postemergence test; type: in vivo, Solanum ptycanthum
How it was run: as §2

velvetleaf [2] = test: Test C pre-/postemergence test; type: in vivo, Abutilon theophrasti
How it was run: as §2

bermudagrass = test: Test C pre-/postemergence test; type: in vivo, Cynodon dactylon
How it was run: as §2

velvetleaf [3] = test: Test A pre-/postemergence greenhouse test; type: in vivo, Abutilon theophrasti; settings: for Plant response rating, Velvetleaf: 0 to 100 scale where 0 is no effect and 100 is complete control; for Velvetleaf plant response rating: 0 to 100 scale
How it was run: (§3)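 Greenhouse herbicide screen, pre- and postemergence in parallel. Soil: loam plus sand. Formulation: non-phytotoxic solvent mix with surfactant. Postemergence stage: one to two leaves, 2–10 cm height. Evaluation: visual injury, compared with untreated controls, about 10 days after treatment.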

redroot pigweed = test: Test A pre-/postemergence greenhouse test; type: in vivo, Amaranthus retroflexus; settings: for Plant response rating, Pigweed: 0 to 100 scale where 0 is no effect and 100 is complete control; for Pigweed plant response rating: 0 to 100 scale
How it was run: as §3

duck salad = test: Test C flooded paddy test; type: in vivo, Heteranthera limosa; settings: Flood
How it was run: as §1

johnsongrass = test: Test C pre-/postemergence test; type: in vivo, Sorghum halepense
How it was run: as §2

wheat = test: Test A pre-/postemergence greenhouse test; type: in vivo, Triticum aestivum; settings: for Plant response rating, Wheat: 0 to 100 scale where 0 is no effect and 100 is complete control; for Wheat plant response rating: 0 to 100 scale
How it was run: as §3

corn = test: Test A pre-/postemergence greenhouse test; type: in vivo, Zea mays; settings: for Plant response rating, Corn: 0 to 100 scale where 0 is no effect and 100 is complete control; for Corn plant response rating: 0 to 100 scale
How it was run: as §3

common ragweed = test: Test C pre-/postemergence test; type: in vivo, Ambrosia elation
How it was run: as §2

Surinam grass = test: Test C pre-/postemergence test; type: in vivo, Brachiaria decumbens
How it was run: as §2

wild oat = test: Test C pre-/postemergence test; type: in vivo, Avena fatua
How it was run: as §2

Goosegrass = test: Test C pre-/postemergence test; type: in vivo, Eleusin indica
How it was run: as §2

giant foxtail [4] = test: Test A pre-/postemergence greenhouse test; type: in vivo, Setaria faberi; settings: for Plant response rating, Foxtail, Giant: 0 to 100 scale where 0 is no effect and 100 is complete control; for Foxtail, Giant plant response rating: 0 to 100 scale
How it was run: as §3

barnyardgrass = test: Test C flooded paddy test; type: in vivo, Echinochloa crus-galli; settings: Flood
How it was run: as §1

[5] = 62 g ai/ha, scale 0 to 100 (0 no effect, 100 complete control)
[6] = 250 g ai/ha, scale 0 to 100, 0 no effect, 100 complete control, 13 to 15 days
[7] = 62 g ai/ha, Preemergence, scale 0 to 100
[8] = 125 g ai/ha, preemergence, scale 0 (no effect) to 100 (complete control)
[9] = Preemergence, 31 g ai/ha, scale 0 to 100 (0 no effect, 100 complete control)
[10] = preemergence, 250 g ai/ha, scale 0 (no effect) to 100 (complete control)
[11] = Postemergence, 500 g ai/ha, 0 is no effect, 100 is complete control
[12] = Preemergence, 125 g ai/ha, 0 no effect, 100 complete control

How did the “Plant response rating, Rice” value (rice; [5]) turn out when `CCc1cc[n+]([O-])c([S+]([O-])Cc2c(C(F)(F)F)nn(C)c2OCC(F)(F)F)c1` (stereo not drawn) [Compound 59] was run?
The value was 10.

And the “Plant response rating, Rice” value (rice; [6])?
Its value is 70.

What about the “Foxtail, Giant plant response rating” value (giant foxtail [1]; [7]) of the same compound?
The value was 55.

What about the “Foxtail, Giant plant response rating” value (giant foxtail [1]; [8]) of the same compound?
Its value is 98.

What about the “Plant response rating, Foxtail, Giant” value (giant foxtail [1]; [9]) of the same compound?
Its value is 35.

And the “Foxtail, Giant plant response rating” value (giant foxtail [1]; [10])?
The value was 100.

What about the “Lambsquarters plant response rating” value (lambsquarters; [7]) of the same compound?
Its value is 100.

And the “Lambsquarters plant response rating” value (lambsquarters; [8])?
The value was 100.

What about the “Plant response rating, Lambsquarters” value (lambsquarters; [9]) of the same compound?
Its value is 80.

And the “Lambsquarters plant response rating” value (lambsquarters; [10])?
The value was 100.

And the “Nightshade plant response rating” value (eastern black nightshade; [7])?
The value was 85.

And the “Nightshade plant response rating” value (eastern black nightshade; [10])?
The value was 85.

And the “Velvetleaf plant response rating” value (velvetleaf [2]; [7])?
The value was 70.

And the “Velvetleaf plant response rating” value (velvetleaf [2]; [8])?
Its value is 100.

And the “Plant response rating, Velvetleaf” value (velvetleaf [2]; [9])?
Its value is 0.

And the “Velvetleaf plant response rating” value (velvetleaf [2]; [10])?
The value was 100.

What about the “Bermudagrass plant response rating” value (bermudagrass; 62 g ai/ha, Preemergence, scale 0 to 100 (0 no effect, 100 complete control)) of the same compound?
Its value is 100.

What about the “Bermudagrass plant response rating” value (bermudagrass; [8]) of the same compound?
Its value is 100.

What about the “Plant response rating, Bermudagrass” value (bermudagrass; [9]) of the same compound?
The value was 70.

What about the “Bermudagrass plant response rating” value (bermudagrass; [10]) of the same compound?
Its value is 100.

What about the “Plant response rating, Velvetleaf” value (velvetleaf [3]; Postemergence, 125 g ai/ha) of the same compound?
Its value is 60.

What about the “Velvetleaf plant response rating” value (velvetleaf [3]; [11]) of the same compound?
The value was 80.

What about the “Velvetleaf plant response rating” value (velvetleaf [3]; [12]) of the same compound?
Its value is 60.

And the “Plant response rating, Velvetleaf” value (velvetleaf [3]; Preemergence, 500 g ai/ha)?
The value was 100.

What about the “Plant response rating, Pigweed” value (redroot pigweed; Postemergence, 125 g ai/ha) of the same compound?
Its value is 60.

And the “Pigweed plant response rating” value (redroot pigweed; [11])?
Its value is 90.

What about the “Pigweed plant response rating” value (redroot pigweed; [12]) of the same compound?
Its value is 100.

And the “Plant response rating, Pigweed” value (redroot pigweed; Preemergence, 500 g ai/ha)?
The value was 100.

What about the “Plant response rating, Ducksalad” value (duck salad; [5]) of the same compound?
The value was 40.

And the “Plant response rating, Ducksalad” value (duck salad; [6])?
Its value is 90.

What about the “Johnsongrass plant response rating” value (johnsongrass; [7]) of the same compound?
Its value is 60.

What about the “Johnsongrass plant response rating” value (johnsongrass; [8]) of the same compound?
Its value is 100.

And the “Plant response rating, Johnsongrass” value (johnsongrass; [9])?
The value was 45.

And the “Johnsongrass plant response rating” value (johnsongrass; [10])?
The value was 100.

And the “Plant response rating, Wheat” value (wheat; Postemergence, 125 g ai/ha)?
The value was 60.

What about the “Wheat plant response rating” value (wheat; [11]) of the same compound?
The value was 70.

What about the “Wheat plant response rating” value (wheat; [12]) of the same compound?
The value was 60.

What about the “Plant response rating, Wheat” value (wheat; Preemergence, 500 g ai/ha) of the same compound?
The value was 90.

What about the “Plant response rating, Corn” value (corn; Postemergence, 125 g ai/ha) of the same compound?
The value was 50.

And the “Corn plant response rating” value (corn; [11])?
Its value is 70.

What about the “Corn plant response rating” value (corn; [12]) of the same compound?
Its value is 20.

And the “Plant response rating, Corn” value (corn; Preemergence, 500 g ai/ha)?
Its value is 90.

What about the “Ragweed plant response rating” value (common ragweed; [7]) of the same compound?
Its value is 30.

And the “Ragweed plant response rating” value (common ragweed; [8])?
Its value is 100.

And the “Ragweed plant response rating” value (common ragweed; [10])?
Its value is 100.

And the “Surinam Grass plant response rating” value (Surinam grass; [7])?
Its value is 80.

What about the “Surinam Grass plant response rating” value (Surinam grass; [8]) of the same compound?
The value was 100.

And the “Plant response rating, Surinam Grass” value (Surinam grass; [9])?
Its value is 40.

And the “Surinam Grass plant response rating” value (Surinam grass; [10])?
The value was 100.

And the “Oat, Wild plant response rating” value (wild oat; [7])?
The value was 85.

What about the “Oat, Wild plant response rating” value (wild oat; [8]) of the same compound?
The value was 90.

What about the “Plant response rating, Oat, Wild” value (wild oat; [9]) of the same compound?
The value was 60.

And the “Oat, Wild plant response rating” value (wild oat; [10])?
Its value is 90.

And the “Goosegrass plant response rating” value (Goosegrass; [7])?
Its value is 100.

What about the “Goosegrass plant response rating” value (Goosegrass; [8]) of the same compound?
The value was 100.

And the “Plant response rating, Goosegrass” value (Goosegrass; [9])?
Its value is 100.

What about the “Goosegrass plant response rating” value (Goosegrass; [10]) of the same compound?
Its value is 100.

What about the “Plant response rating, Foxtail, Giant” value (giant foxtail [4]; Postemergence, 125 g ai/ha) of the same compound?
Its value is 60.

What about the “Foxtail, Giant plant response rating” value (giant foxtail [4]; [11]) of the same compound?
Its value is 90.

And the “Foxtail, Giant plant response rating” value (giant foxtail [4]; [12])?
The value was 100.

What about the “Plant response rating, Foxtail, Giant” value (giant foxtail [4]; Preemergence, 500 g ai/ha) of the same compound?
The value was 100.

And the “Plant response rating, Barnyardgrass” value (barnyardgrass; [5])?
The value was 30.

And the “Plant response rating, Barnyardgrass” value (barnyardgrass; [6])?
Its value is 60.
